Assays:
[1] = biological target: T1, 45 kDa Arg-specific proteinase (Porphyromonas gingivalis, UniProt P28784); test: biochemical; assay type: biochemical, P. gingivalis W50; conditions: for activity at 1000 µM / activity at 10000 µM / activity at 100 µM: read-out: Activity (%) of the 45 kDa Arg-specific proteinase
T1 construct: made in house; host or cells: native protein purified from sonicate of P. gingivalis W50 cells (Q-sepharose, Superose 12, Arg-sepharose 200 mM arginine eluant, Mono Q)

[2] = biological target: PrtR45, 45 kDa Arg-specific proteinase (Porphyromonas gingivalis W50); test: cell-based or functional assay
[3] = biological target: 48 kDa Lys-specific proteinase (PrtK48) (Porphyromonas gingivalis, UniProt Q51817); assay type: biochemical, P. gingivalis W50
[4] = compound 1.0 mM, incubation also contained 1.0 mM 2-mercaptoethanol
[5] = compound 10.0 mM, incubation also contained 1.0 mM 2-mercaptoethanol

T1 sequence (P28784 228-719): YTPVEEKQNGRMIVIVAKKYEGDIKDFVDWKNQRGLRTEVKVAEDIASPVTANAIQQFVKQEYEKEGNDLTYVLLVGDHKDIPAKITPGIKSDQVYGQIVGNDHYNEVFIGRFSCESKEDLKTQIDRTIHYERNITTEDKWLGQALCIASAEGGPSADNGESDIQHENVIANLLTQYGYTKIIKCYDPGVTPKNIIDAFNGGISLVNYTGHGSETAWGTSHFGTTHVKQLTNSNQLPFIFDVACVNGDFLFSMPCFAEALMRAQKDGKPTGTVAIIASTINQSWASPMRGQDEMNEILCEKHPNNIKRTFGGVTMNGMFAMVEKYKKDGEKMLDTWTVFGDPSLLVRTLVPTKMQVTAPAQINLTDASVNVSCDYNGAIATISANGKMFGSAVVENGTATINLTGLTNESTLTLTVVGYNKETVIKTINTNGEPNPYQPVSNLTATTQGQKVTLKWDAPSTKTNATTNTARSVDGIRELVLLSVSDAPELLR
Chain of 48 kDa Lys-specific proteinase (PrtK48) (Q51817 229-680 limits assumed): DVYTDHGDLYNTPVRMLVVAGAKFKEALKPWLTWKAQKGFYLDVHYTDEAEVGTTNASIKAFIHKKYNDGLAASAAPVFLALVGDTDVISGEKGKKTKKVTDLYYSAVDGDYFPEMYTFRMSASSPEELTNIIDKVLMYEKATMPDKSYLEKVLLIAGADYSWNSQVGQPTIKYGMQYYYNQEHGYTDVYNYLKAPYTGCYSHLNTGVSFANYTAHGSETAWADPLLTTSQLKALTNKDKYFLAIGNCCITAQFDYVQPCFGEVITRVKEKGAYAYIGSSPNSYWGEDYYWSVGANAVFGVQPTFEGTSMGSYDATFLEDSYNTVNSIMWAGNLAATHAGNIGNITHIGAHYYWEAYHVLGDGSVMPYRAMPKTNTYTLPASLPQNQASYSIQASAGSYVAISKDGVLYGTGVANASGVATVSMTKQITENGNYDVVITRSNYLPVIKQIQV
Chain of PrtR45, 45 kDa Arg-specific proteinase (Porphyromonas gingivalis W50) (B2RM93 225-247): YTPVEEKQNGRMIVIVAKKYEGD

`O=C(O)CI` [Iodoacetic acid] was tested, and the activity at 1000 µM [1] was 82% and the activity at 10000 µM [1] was 19%.

`OCCS` [2-mercaptoethanol] was tested, and the “Activity (%) of the 45 kDa Arg-specific proteinase” value ([1]; compound 1.0 mM) was 100%, the “Activity (%) of the 45 kDa Arg-specific proteinase” value ([1]; compound 10.0 mM) was 158% and the “Activity (%) of the 45 kDa Arg-specific proteinase” value ([1]; compound 50.0 mM) was 189%.

For Leupeptin (peptide), the Activity (%) (amidolytic activity, leupeptin at 0.1 mM) [2] was 0%.

Work on `O[C@H](CS)[C@H](O)CS` (racemic) [Dithiothreitol] yielded an activity at 1000 µM [1] of 109% and an activity at 10000 µM [1] of 174%.

In the case of `O=C(O)c1cc[c]([Hg][Cl])cc1` [PCMB, p-chloromercuribenzoic acid], the “Activity (%) of the 45 kDa Arg-specific proteinase” value [1, 4] was 100% and the “Activity (%) of the 45 kDa Arg-specific proteinase” value [1, 5] was 14%.

`c1cnc2c(c1)ccc1cccnc12` [o-phenanthroline] was tested, and the “Activity (%) of the 45 kDa Arg-specific proteinase” value [1, 5] was 100%.

For `N[C@@H](CS)C(=O)O` [L-cysteine], the “Effect on the Arg-specific 45 kDa enzyme (in words)” value [1] was “activated”, the activity at 100 µM [1] was 183% and the activity at 1000 µM [1] was 320%. For the same molecule, the activity at 10000 µM [1] was 487%.

For `CC(=O)N[C@@H](CC(C)C)C(=O)N[C@@H](CC(C)C)C(=O)N[C@H](C=O)CCCNC(=N)N` [Leupeptin], the “Effect on the Lys-specific enzyme (in words)” value [3] was “not inhibited”, the “Effect on the Arg-specific 45 kDa enzyme (in words)” value [1] was “inhibited” and the activity at 100 µM [1] was 0%.

In the case of `O=S(=O)(F)Cc1ccccc1` [PMSF, phenylmethyl sulfonyl fluoride], the “Effect on the Arg-specific 45 kDa enzyme (in words)” value [1] was “not inhibited” and the “Activity (%) of the 45 kDa Arg-specific proteinase” value [1, 5] was 90%.

In the case of `NCCc1ccc(S(=O)(=O)F)cc1` [AEBSF, [4-(2-aminoethyl)-benzenesulfonylfluoride]], the “Effect on the Arg-specific 45 kDa enzyme (in words)” value [1] was “not inhibited”, the “Activity (%) of the 45 kDa Arg-specific proteinase” value [1, 4] was 93% and the “Activity (%) of the 45 kDa Arg-specific proteinase” value [1, 5] was 80%.

In the case of `O=C(O)CN(CCN(CC(=O)O)CC(=O)O)CC(=O)O` [EDTA], the “Effect on the Lys-specific enzyme (in words)” value [3] was “not inhibited”, the “Effect on the Arg-specific 45 kDa enzyme (in words)” value [1] was “inhibited” and the “Activity (%) of the 45 kDa Arg-specific proteinase” value ([1]; EDTA +Ca2+ 50.0 mM, incubation also contained 1.0 mM 2-mercaptoethanol) was 97%. For the same molecule, the “Activity (%) of the 45 kDa Arg-specific proteinase” value [1, 4] was 100%, the “Activity (%) of the 45 kDa Arg-specific proteinase” value [1, 5] was 4% and the “Activity (%) of the 45 kDa Arg-specific proteinase” value ([1]; compound 50.0 mM, incubation also contained 1.0 mM 2-mercaptoethanol) was 0%.

Reference: patent US6511666B1, “Diagnostics and treatments of periodontal disease” (priority 1995, dated 2003)
